Publication PMC8769072, “Proteome‐scale mapping of binding sites in the unstructured regions of the human proteome” (Molecular Systems Biology, 2022)
Each block holds one substance with its values, some of them ahead of it. Where no end group is shown, it is not given here.

Legend:
TLN1 PTB = target: T1, TLN1 PTB (Homo sapiens, UniProt Q9Y490); experiment: FP competition, TLN1 PTB; assay type: binding
T1 construct: Q9Y490; TLN1; PTB; 309; pHH0103; Sidhu Lab (PMID: 33438817); made in house; host or cells: bacteria (E. coli BL21(DE3) gold is named only for the phage-selection preparations)

KPNA4 ARM [1] = target: T2, KPNA4 ARM (Homo sapiens, UniProt O00629); experiment: FP competition, KPNA4 ARM major pocket (FITC-Myc probe); assay type: binding; settings: for IC50: FP competition with FITC-Myc320-328 probe for the major pocket, 50 mM KPO4 pH 7.5, n = 3 technical replicates; for Kd: Fig 5D, FP competition with FITC-Myc320-328, major groove, n = 3
T2 construct: O00629; KPNA4; Arm; 68; 487; pETM33/pETM41; Genescript; made in house; host or cells: bacteria (E. coli BL21(DE3) gold is named only for the phage-selection preparations)
Text: (§1) Like other importins, KPNA4 has two distinct NLS‐binding pockets on the surface of an armadillo (ARM) repeat fold (major pocket, ARM 2–4; minor pocket, ARM 6–8; Fig 5B) (Smith et al, [2018]). Bipartite NLSs are usually 17–19 amino acids long and engage both pockets. Monopartite NLSs are short basic stretches, divided into five classes (Kosugi et al, [2009]): class I KR[KR]R or K[KR]RK, class II [PR]xxKR[^DE][KR] (where ^ indicates “not”), class III KRx[WFY]xxAF, class IV [RP]xxKR[KR][^DE], and class V LGKR[KR][WFY]. The class I and class II motifs preferentially interact with the major pocket (Kosugi et al, [2009]). In contrast, class III and class IV NLSs preferentially bind to the minor pocket. Using KPNA4 as a bait against the HD2 P8 library we identified 33 peptides found in 32 proteins. Of the 26 proteins for which information was available, 22 proteins were annotated as having nuclear or nucleolar localization in the UniProt database. To gain additional information we combined the data generated for KPNA4 by screening against the complete P8 HD2 library, with the results generated using two relevant sublibraries (the cytoplasmic and nuclear, and nuclear sublibraries) resulting in a set of 92 peptides containing NLS‐like sequences found in 76 proteins. Using these peptides we could generate consensus motifs that matched four of the previously reported NLS classes (Fig 5A; class I‐IV). […] Three peptides bound only to the major pocket. Eight peptides with class III motif and one KRxH‐containing peptide only bound to the minor pocket. Five peptides outcompeted both probe peptides, which may be explained by the amino acid sequence matching both class II and class III motifs (e.g., 1135‐ PSPKRKL ‐1139 in ZNF532; Fig 5), and possibly by cross specificity of the two binding pockets.

KPNA4 ARM [2] = target: T2, KPNA4 ARM; experiment: FP competition, KPNA4 ARM minor pocket (FITC-NCOR2 probe); assay type: binding
Text: as §1

KEAP1 Kelch = target: T3, KEAP1 Kelch (Homo sapiens, UniProt Q14145); experiment: FP competition, KEAP1 Kelch; assay type: binding
T3 construct: Q14145; KEAP1; Kelch; 321; 609; pETM33; Genescript; made in house; host or cells: bacteria (E. coli BL21(DE3) gold is named only for the phage-selection preparations)

[3] = system: immobilized GST-tagged bait protein domains; experiment: ProP-PD phage selections (HD2 P8, sublibraries, HD2 P3, HD1 P8) with NGS and confidence level; assay type: binding, human; settings: bait CRK_SH3_1_P46108_124_198; library HD2; benchmarking set of validated motif instances; TRUE = motif instance recovered in the ProP-PD selection
MDM2 SWIB = target: T4, MDM2 SWIB (Homo sapiens, UniProt Q00987); experiment: FP competition, MDM2 SWIB; assay type: binding
T4 construct: Q00987; MDM2; SWIB; 17; 125; pETM33; Genescript; His-GST (cleaved yes); made in house; host or cells: bacteria (E. coli BL21(DE3) gold is named only for the phage-selection preparations)

Substance: DLIFTDSKLYIPLE-NH2 [TPTE]
IC50 (TLN1 PTB): 15 µM

IC50 (KPNA4 ARM [1]): 22 µM
Kd (KPNA4 ARM [1]): 14 µM
IC50 (KPNA4 ARM [2]): 24 µM
Substance: DLKRRLDSITSSQSSA-NH2 [KDR]

IC50 (KPNA4 ARM [1]): 0.13 µM
Kd (KPNA4 ARM [1]): 0.075 µM
Substance: EDSIEPPHKRLCLSSE-NH2 [DMTF1]

IC50 (KPNA4 ARM [2]): 36 µM
Substance: ELKRKLEQEQKLVEVL-NH2 [MKL2]

IC50 (KPNA4 ARM [1]): 1.9 µM
Substance: ERENPSKRSRIERDID-NH2 [CTDSPL2]

IC50 (TLN1 PTB): 0.42 µM
Ki (TLN1 PTB; Fig 3C, FP competition with FITC-PIP5K1C probe, triplicates): 0.066 µM
Substance: FPTDERSWVYSPLHYS-NH2 [PIP5K1C]

IC50 (KEAP1 Kelch): 44 µM
Substance: GFDAVTGEFTGMPEQW-NH2 [PAK1]
motif_found [3]: FALSE

IC50 (MDM2 SWIB): 130 µM
Substance: GFEAQWAALENKSKQR [NUMB]

IC50 (KPNA4 ARM [2]): 0.41 µM
Kd (KPNA4 ARM [2]; read-out: KD (Fig 5D)): 0.047 µM
Substance: GKKRTFDETVSTYVPL-NH2 [TPX2]

IC50 (KPNA4 ARM [2]): 0.43 µM
Substance: GVKRTYSEVYPGQQYL-NH2 [ZMIZ2]

IC50 (KEAP1 Kelch): 6.1 µM
Substance: IDPSTGERFPVTDAVN-NH2 [PLEC 4459-4474]

IC50 (KPNA4 ARM [1]): 2.3 µM
IC50 (KPNA4 ARM [2]): 3800 µM
Substance: IPEKKQRLEEATTICL-NH2 [AFF2]

IC50 (KPNA4 ARM [2]): 3.6 µM
Substance: PFKRPHSTISDSSTSS-NH2 [PLEKHG4B]

IC50 (KPNA4 ARM [2]): 0.12 µM
Substance: PKRTYDMMEGRVGRAI-NH2 [NCOR2]

IC50 (KPNA4 ARM [2]): 1.3 µM
Substance: SLAPVKRTYEQMEFPL-NH2 [ADNP]

IC50 (KPNA4 ARM [2]): 2.4 µM
Substance: STMKRKHDEIQRSLPV-NH2 [ZBED9]

IC50 (MDM2 SWIB): 9 µM
Ki (MDM2 SWIB; Fig 3C, FP competition with FITC-p53 probe, triplicates): 0.174 µM
Substance: THFAELWGHLDHTMFF [RNF115]

IC50 (MDM2 SWIB): 73 µM
Substance: TPEDDRSFQTVWATVF [KIAA1671]

IC50 (KPNA4 ARM [1]): 0.24 µM
Substance: VEPETKRLKLAASEDH-NH2 [ZRANB3]

IC50 (TLN1 PTB): 62 µM
Substance: VGPLTPLWTYPATAAG-NH2 [NYAP1]

IC50 (KEAP1 Kelch): 80 µM
Substance: YDPVTGEWKSLAKLPE-NH2 [KLHL24]
